We go through twelve compounds from US10377717B2, “Farnesoid X receptor agonists and uses thereof” (Metacrine, Inc., priority 2015, dated 2019).

Chain of hFXR (Q96RI1 whole entry): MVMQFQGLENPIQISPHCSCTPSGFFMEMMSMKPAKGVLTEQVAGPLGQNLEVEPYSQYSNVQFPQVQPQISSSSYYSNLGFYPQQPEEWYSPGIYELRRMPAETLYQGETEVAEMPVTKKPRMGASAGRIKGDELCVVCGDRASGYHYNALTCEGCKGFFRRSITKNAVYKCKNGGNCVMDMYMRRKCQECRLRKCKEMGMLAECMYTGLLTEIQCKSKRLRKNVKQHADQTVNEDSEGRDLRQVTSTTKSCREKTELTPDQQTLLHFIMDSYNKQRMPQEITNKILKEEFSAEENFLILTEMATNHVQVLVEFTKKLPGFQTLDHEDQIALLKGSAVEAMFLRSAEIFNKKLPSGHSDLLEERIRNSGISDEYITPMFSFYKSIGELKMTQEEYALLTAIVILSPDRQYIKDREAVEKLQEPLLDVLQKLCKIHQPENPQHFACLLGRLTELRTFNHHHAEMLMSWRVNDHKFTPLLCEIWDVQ
Chain of hFXR (P19793 whole entry partner): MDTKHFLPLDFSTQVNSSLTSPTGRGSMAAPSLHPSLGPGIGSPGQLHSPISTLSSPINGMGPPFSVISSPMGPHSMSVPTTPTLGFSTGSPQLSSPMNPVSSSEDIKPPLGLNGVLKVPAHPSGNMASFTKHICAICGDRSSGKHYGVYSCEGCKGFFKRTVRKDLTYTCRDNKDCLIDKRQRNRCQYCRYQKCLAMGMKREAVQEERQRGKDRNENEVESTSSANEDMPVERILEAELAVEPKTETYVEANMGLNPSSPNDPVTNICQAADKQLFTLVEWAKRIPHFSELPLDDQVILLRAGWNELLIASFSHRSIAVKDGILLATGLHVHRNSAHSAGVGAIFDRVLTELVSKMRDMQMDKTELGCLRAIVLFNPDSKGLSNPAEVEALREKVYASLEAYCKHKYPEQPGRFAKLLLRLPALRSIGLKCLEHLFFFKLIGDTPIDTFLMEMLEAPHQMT

The test addresses hFXR (Homo sapiens (Human), UniProt Q96RI1). The experiment in a line: In Vitro FXR Assay (TK), luciferase reporter in transfected CV-1 cells. The test is classed as cell-based. The note with it: TK-ECRE-luc reporter, hFXR/hRXR, 18 hrs, maximum efficacy <25% of Fexaramine control classified as '+'. The procedure:
CV-1 cells were seeded at a density of 2,000,000 cells in a T175 flask with DMEM+10% charcoal double-stripped FBS and incubated at 37° C. in 5% CO2 for 18 h (O/N).
After 18 h of incubation, the medium in the T175 flask was changed with fresh DMEM+10% charcoal super-stripped serum. In a polypropylene tube, 2500 μL OptiMEM (Life Technologies, Cat #31985-062) was combined with expression plasmids for hFXR, hRXR, TK-ECRE-luc and pCMX-YFP. The tube was then briefly vortexed and incubated at room temperature for 5 minutes. Transfection reagent (X-tremeGENE HP from Roche, Cat #06 366 236 001) was added to the OptiMEM/plasmid mixture vortexed and incubated at room temperature for 20 minutes. Following incubation, the transfection reagent/DNA mixture complex was added to cells in the T175 flask and the cells were incubated at 37° C. in 5% CO2 for 18 h (O/N).
Compounds were serially diluted in DMSO and added to transfected CV-1 cells. The cells were then incubated for 18 hrs. The next day cells were lysed and examined for luminescence.
Background: Reporter assays use an easily measured gene product as a stand-in for the process of interest.
A word on the EC50: it is the concentration that produces a half-maximal response. `COC(=O)c1ccc2c(N(CC3CCN(c4ccc(OC)c(C)c4)CC3)C(=O)CC(C)(C)C)nccc2c1` [Compound 98, Methyl 1-(N-((1-(4-methoxy-3-methylphenyl)piperidin-4-yl)methyl)-3,3-dimethylbutanamido)isoquinoline-6-carboxylate] displayed an EC50 of 1 to 10 µM.

Compound `COC(=O)c1ccc2c(N(Cc3ccc(-c4ccc(OC)c(C)c4)cc3)C(=O)Cc3ccccc3)nccc2c1` [Compound 75, Methyl 1-(N-((4′-methoxy-3′-methyl-[1,1′-biphenyl]-4-yl)methyl)-2-phenylacetamido)isoquinoline-6-carboxylate] yielded an EC50 of no less than 10 µM.

`CCOC(=O)c1ccc2c(N(Cc3ccc(-c4ccc(OC)c(C)c4)cc3)C(=O)C3CCCCC3)cccc2n1` [Compound 23, Ethyl 5-(N-((4′-methoxy-3′-methyl-[1,1′-biphenyl]-4-yl)methyl)cyclohexanecarboxamido) quinoline-2-carboxylate] displayed an EC50 of 1 to 10 µM.

In the case of `COC(=O)/C=C/c1ccnc(N(Cc2ccc(-c3ccc(N(C)C)nc3)cc2)C(=O)C2CCCCC2)c1` [Compound 5, (E)-Methyl 3-(2-(N-(4-(6-(dimethylamino)pyridin-3-yl)benzyl)cyclohexane-carboxamido)pyridin-4-yl)acrylate], the half-maximal effective concentration (EC50) lay in the range of 1 to 10 µM.

`COC(=O)c1ccc2c(N(Cc3ccc(-c4ccc(OC)c(C#N)c4)cc3)C(=O)[C@H]3CC[C@H](O)CC3)nccc2c1` [Compound 67, Methyl 1-(trans-N-((3′-cyano-4′-methoxy-[1,1′-biphenyl]-4-yl)methyl)-4-hydroxycyclohexanecarboxamido) isoquinoline-6-carboxylate] returned an EC50 of 1 to 10 µM.

For the compound `CCc1ccc(-c2ccc(CN(C(=O)CC(C)(C)C)c3nccc4cc(C(=O)OC)ccc34)cc2)cc1` [Compound 53, Methyl 1-(N-((4′-ethyl-[1,1′-biphenyl]-4-yl)methyl)-3,3-dimethylbutanamido)isoquinoline-6-carboxylate], the EC50 is no more than 1 µM.

`COC(=O)c1ccc2c(N(Cc3ccc(-c4ccc(OC)c(C)c4)cc3)C(=O)CC3CCCCC3)nccc2c1` [Compound 74, Methyl 1-(2-cyclohexyl-N-((4′-methoxy-3′-methyl-[1,1′-biphenyl]-4-yl)methyl)acetamido)isoquinoline-6-carboxylate] came in with an EC50 of 1 to 10 µM.

Compound `COC(=O)c1ccc2c(N(Cc3ccc(-c4ccc(C(F)F)cc4)cc3)C(=O)CC(C)(C)C)nccc2c1` [Compound 56, Methyl 1-(N-((4′-(difluoromethyl)-[1,1′-biphenyl]-4-yl)methyl)-3,3-dimethylbutanamido)isoquinoline-6-carboxylate] had an EC50 of no more than 1 µM.

Take `COc1ccc(-c2ccc(CN(C(=O)CC(C)(C)C)c3nccc4cc(CCC(=O)O)ccc34)cc2)cc1C` [Compound 104, 3-(1-(N-((4′-Methoxy-3′-methyl-[1,1′-biphenyl]-4-yl)methyl)-3,3-dimethylbutanamido)isoquinolin-6-yl)propanoic Acid]: the EC50 was 1 to 10 µM.

With `COC(=O)c1ccc2c(N(Cc3ccc(-c4ccc(C#N)c(C)c4)cc3)C(=O)CC(C)(C)C)nccc2c1` [Compound 42, Methyl 1-(N-((4′-cyano-3′-methyl-[1,1′-biphenyl]-4-yl)methyl)-3,3-dimethylbutanamido)isoquinoline-6-carboxylate], the concentration giving a half-maximal response (EC50) is no more than 1 µM.

Compound `CCOC(=O)c1ccc2c(N(Cc3ccc(-c4ccc(OC)c(C)c4)cc3)C(=O)C3CCCCC3)nccc2c1` [Compound 21, Ethyl 1-(N-((4′-methoxy-3′-methyl-[1,1′-biphenyl]-4-yl)methyl)cyclohexanecarboxamido) isoquinoline-6-carboxylate] yielded an EC50 of no more than 1 µM.

In turn, `CCOC(=O)c1cnc2c(N(Cc3ccc(-c4ccc(N(C)C)cc4)cc3)C(=O)C3CCCCC3)cccc2c1` [Compound 14, Ethyl 8-(N-((4′-(dimethylamino)-[1,1′-biphenyl]-4-yl)methyl)cyclohexanecarboxamido) quinoline-3-carboxylate] had an EC50 of 1 to 10 µM.
